From patent US20230089267A1, “Compositions and Methods For Reducing Immune Intolerance and Treating Autoimmune Disorders” (Lapix Therapeutics, Inc., priority 2021, published 2023)

How the values were obtained:
[1] = system: FoxP3+/CD4+ T-cells in splenocytes from naïve C57BL/6 mice; assay: In vitro dose-response, percent FoxP3+/CD4+ T-cells in murine splenocytes; assay type: cell-based
Experimental: All animal studies were conducted under IACUC number B2020-91 and in compliance with Tufts University/Tufts Medical Center & Human Nutrition Research Center on Aging. Animals were housed four in a cage and had access to food and water ad libitum. Anti-FoxP3 and anti-CD4 for flow cytometry were obtained from eBioscience. Compounds 1-3 were formulated with 10% DMPC in PBS. PS liposomes were synthesized at a 30:70 PS:lipid molar ratio.
Splenocytes from naïve C57BL/6 mice were stained with CFSE, seeded at 2×10^5 cells/well, and dosed with each compound from 1e^−4 μM to 3.0e^−9 μM using a log 2 dilution scheme. Cells were incubated for 72 hours before phenotyping for FoxP3+/CD4+ T-cells. Flow cytometer analysis was performed to assess changes in percent FoxP3+/CD4+ T-cells as a function of compound and dose. Concentration versus response was fitted to a 4-parameter, log-logistic model using the “dre” package in “R”. Both EC50 and EC90 were obtained by model fitting.
Cells were observed via a microscope at the end of the incubation period. All cells looked healthy and suitable for flow cytometry analysis.
Table 2 summarizes EC50 and EC90 values obtained from the model fitting.

[2] = system: human B-cells (CD19+CD71+IgM+); assay: Regulatory B-cell induction in human PBMCs; assay type: cell-based; conditions: 10 ng/ml, five days
Experimental: 2×10^5 Total PBMCs or T-cell depleted PBMCs were cultured in a 96-well plate in the presence of ascending doses of Compound 2 ranging from 0 to 10 ng/ml for five days. At day 5, cells were washed and stained for CD19, CD71 and IgM for 30 minutes on ice, then cells were washed with PBS, and stained with viability dye to exclude dead cells.

[3] = system: Foxp3+/CD4+ T-cells of MS patients; assay: PBMCs of multiple sclerosis patients treated ex vivo; assay type: cell-based, human; conditions: up to 2.5 μM, five days, six subjects
Experimental: Total human PBMCs were isolated from six subjects with confirmed diagnosis of MS. On Day 0, 2×10^5 cells/well were incubated in a 96 round bottomed-well plate alone or with up to 2.5 μM Compound 2 for five days. On Day 5, cells were collected, washed and stained for surface staining (CD3, CD4), then viability dye to exclude dead cells. Intranuclear staining was performed after cell fixation and permeabilization for transcription factor FoxP3. Cells were washed and fixed for acquisition by Attune NXT flow cytometer. Data were analyzed by FlowJov10.

[4] = system: MOG35-55-induced murine EAE model; assay: Induction/maintenance treatment paradigm in MOG35-55-induced murine EAE model (Example 9); assay type: in vivo, mice
Experimental: Compound 2, natalizumab and DMF were prepared as described in Example 8. Table 5 (see Example 4) details the expected clinical symptoms and scoring criteria used in this study.
This study was designed to evaluate the therapeutic effects of Compound 2 versus natalizumab in a treatment induction/maintenance paradigm (induction cohort), and Compound 2 versus DMF after natalizumab (maintenance cohort). In the induction cohorts, animals were randomized 2:1:1 natalizumab:Compound 2:control when they reached a score of 2.5, as per FIG. 6A. Animals in the natalizumab cohort were given 100 μg natalizumab/mouse every 3 days for 3 doses before being randomized to the maintenance cohort. Animals randomized into the maintenance cohort after natalizumab received maintenance doses of DMF or Compound 2 (1:1 randomization), as per their group assignment for 14 days. Animals in the Compound 2 induction cohort were dosed with 30 μg Compound 2/mouse SC QD for a maximum of 7 days, or 3 consecutive days of disease score <2.5, at which time they were placed on a maintenance dose of 3 μg/mouse SC QD for 14 days. All animals in all groups were monitored for 14 days after the last dose for disease score and survival.
Disease control (induction therapy): Disease control was defined as maintaining a clinical score of 2.5 or less after randomization. Animals in the different treatment groups were monitored after the 2:1:1 randomization. Clinical scores were recorded daily for all animals and plotted over time. A score of >2.5 was recorded as an event and analyzed by survival analysis in GraphPad Prism 9. Animals not reaching a clinical score of 2.5 by the end of the induction period (day 7) were assigned a score of zero for the survival analysis.
Survival (induction therapy): Death due to disease (clinical score 5) during the treatment induction period was recorded as an event “1”, animals surviving until the end of the induction period, day 7 after randomization, were censored on day 7 for the purposes of survival analysis.
Disease control (maintenance therapy): At the end of the induction period with natalizumab, animals were randomized 1:1 to the DMF maintenance group or Compound 2 maintenance group as per FIG. 6A. Animals were dosed for 14 days, and clinical scores were monitored daily.
Survival (maintenance therapy): Death by disease (clinical score of 5) was recorded as an event “1”, death due to ulceration or ex vivo analysis was recorded as “0”. Animals surviving until the end of the study were recorded as “0” on the last day of the study. Survival analysis was done in GraphPad Prism 9.

passive MG model = assay: Passive myasthenia gravis model, adoptive transfer to RAG2−/− mice; assay type: in vivo; conditions: by day 10, SC daily for ten days
Experimental: In this passive MG model in B6 mice, donor mice (n=20, aged 6-8 weeks) were immunized with complete Freund's adjuvant (CFA) and nicotinic acetylcholine receptor (AChR) emulsion weekly for four weeks. Seven days after the last immunization, splenocytes were collected, and 10^6 cells/mouse were transferred to RAG2^−/− mice. The recipient mice (n=10/group) were treated one day after adoptive transfer with prednisone (1 μg/mouse) SC daily for ten days after disease onset or Compound 2 3 μg SC daily for ten days after disease onset, or were left untreated. Minimal manifestation of disease was defined as a return to a clinical score of 1 after an exacerbation (score 2 or higher). Time to return to minimal score was logged, and the likelihood of return was plotted for untreated animals, and standard of care (SOC; prednisone)- and Compound 2-treated animals.

DSS-induced IBD model = assay: Dextran sulfate sodium (DSS)-induced IBD model; assay type: in vivo, mice; conditions: 30 μg SC for 7 days then 3 μg SC for 7 days, both disease cycles
Experimental: IBD was induced in 6-8-week-old female C57/B6 mice by adding 3% DSS (Sigma Aldrich) in their drinking water for 3 days on 2 different occasions (days 0, 1, and 2 of the induction phase and days 11, 12, and 13 of the re-exposure phase). One group (n=5) was treated with Compound 2 (30 μg SC for 7 days) during the disease induction phase followed by a lower dose of Compound 2 (3 μg SC for 7 days) during the disease re-exposure phase. […] Mice body weight was monitored daily starting on day 0.

[5] = Mus musculus, T-cell, percent FoxP3+/CD4+ T-cells, 72 hours, 4-parameter log-logistic model fit
[6] = Compound 2 induction followed by Compound 2 maintenance

N[C@@H](CNC(=O)Cc1ccc(OCc2cccc3ccccc23)cc1)C(=O)O [Compound 2, (S)-2-Amino-3-(2-(4-(naphthalen-1-ylmethoxy)phenyl)acetamido)propanoic acid]
EC50 [1, 5]: 0.00602 nM
EC90 [1, 5]: 0.0199 nM
mean FoxP3+/CD4+ T-cells, upper plateau, mean (SEM) ([1]; high dose, from model fitting): 4.54 (0.14) %
dose-response behaviour of FoxP3+/CD4+ T-cells ([1]; in words): showed a clear plateau
mean FoxP3+/CD4+ T-cells, lower plateau, mean (SEM) ([1]; low dose, from model fitting): 2.20%
percentage of B-reg (CD19+CD71+IgM+) ([2]; T-cell depleted PBMCs): 14.0%
percentage of B-reg (CD19+CD71+IgM+) ([2]; total PBMC cultures): 17.5%
MS patients whose T-cells responded (increase in percentage of Foxp3+/CD4+ T-cells) [3]: five out of six
clinical score on the last day of dosing [4, 6]: 2.2 (SD=0.3)
mean score on the first day of maintenance therapy [4, 6]: 2.3 (SD=0.4)
mice showing clinical score improvement and switched to maintenance before end of induction period ([4]; induction period): at least 4 out of the 10
animals that survived the treatment induction period ([4]; induction period, day 7 after randomization): 9/9
last measured score, day 7 after initiation of maintenance ([4]; maintenance after natalizumab induction): 2.5 (SD=0)
mortality rate in maintenance cohort ([4]; maintenance after natalizumab induction, n=4 in each group): 0%
survival in maintenance cohort ([4]; maintenance after natalizumab induction, to end of study): All animals randomized to Compound 2 maintenance after natalizumab induction survived until the end of the study
mean clinical score by day 7 of induction ([4]; randomized at score 2.5, Compound 2 30 μg SC): 2.25 (SD=0.26)
animals that progressed to a clinical score >2.5 during induction ([4]; randomized at score 2.5, natalizumab 100 μg/mouse every 3 days, Compound 2 30 μg SC): 0/10
animals returned to minimal manifestation of disease (score 1) (passive MG model): 63%
body weight change (DSS-induced IBD model): less weight loss and more rapid recovery than untreated animals
